Assay results: US8247211B2, “Glycopeptide antibiotics” (American Cyanamid Company, priority 2001, dated 2012)
≈ marks a conversion by molar mass, not a printed value.

Experiments:
Test in all cases: In vitro antibacterial evaluation: minimum inhibitory concentration (MIC), broth dilution method
Assay type in all cases: cell-based
Details in all cases: 18 hours at 35° C.
[1] = tested on: Enterococcus sp.
Summary of the method: (§1)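 Test strains, among them recent clinical isolates carrying methicillin, penicillin and/or vancomycin resistance, were inoculated at 5×10^5 CFU/mL. A broth dilution series spanning 64-0.06 μg/mL in Muller-Hinton II […] (NCCLS M7-A2) defined the MIC as the lowest growth-inhibiting concentration.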

[2] = tested on: Escherichia coli
Summary of the method: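 MIC read as lowest drug level preventing visible growth. Organisms at 5×10^5 CFU/mL were exposed to a 64-0.06 μg/mL dilution series in Muller-Hinton II […] following NCCLS broth dilution standard M7-A2.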

[3] = tested on: Staphylococcus sp.
Summary of the method: as §1

[4] = tested on: Streptococcus sp.
Summary of the method: as §1

[5] = broth dilution, inoculum 5×10^5 CFU/mL

## CC(c1ccccc1)C1NC(=O)CNC(=O)C(CO)NC(=O)C(C(O)C2CNC(=N)N2C2OC(CO)C(O)C(O)C2O)NC(=O)C(C(O)C2CNC(=N)N2)NC(=O)C(Cc2ccc(OC3OC(CO)C(OC4OC(COCc5ccc(Oc6ccccc6)cc5)C(O)C(O)C4O)C(O)C3O)cc2)NC1=O (stereo not drawn) [Example 236, Cyclo[glycyl-β-methylphenylalanyl-O-[4-O-[6-O-(4-phenoxybenzyl)hexopyranosyl]hexopyranosyl]tyrosyl-3-(2-iminoimidazolidin-4-yl)seryl-3-(3-hexopyranosyl-2-iminoimidazolidin-4-yl)serylseryl]]
[1]; Enterococcus avium (GC 4558)
  MIC Enterococcus avium (GC 4558): 2 µg/mL (≈ 1.35 µM)
[1]; Enterococcus faecalis (ATCC 29212)
  MIC Enterococcus faecalis (ATCC 29212): 4 µg/mL (≈ 2.71 µM)
[1]; Enterococcus faecalis (GC 2242)
  MIC Enterococcus faecalis (GC 2242): 4 µg/mL (≈ 2.71 µM)
[1]; Enterococcus faecalis (GC 2691)
  MIC Enterococcus faecalis (GC 2691): 2 µg/mL (≈ 1.35 µM)
[1]; Enterococcus faecalis (GC 3059)
  MIC Enterococcus faecalis (GC 3059): 2 µg/mL (≈ 1.35 µM)
[1]; Enterococcus faecalis (GC 4552)
  MIC Enterococcus faecalis (GC 4552): 4 µg/mL (≈ 2.71 µM)
[1]; Enterococcus faecalis (GC 4553)
  MIC Enterococcus faecalis (GC 4553): 4 µg/mL (≈ 2.71 µM)
[1]; Enterococcus faecalis (GC 4554)
  MIC Enterococcus faecalis (GC 4554): 4 µg/mL (≈ 2.71 µM)
[1]; Enterococcus faecalis (GC 6189)
  MIC Enterococcus faecalis (GC 6189): 2 µg/mL (≈ 1.35 µM)
[1]; Enterococcus faecium (GC 2243)
  MIC Enterococcus faecium (GC 2243): 4 µg/mL (≈ 2.71 µM)
[1]; Enterococcus faecium (GC 4556)
  MIC Enterococcus faecium (GC 4556): 4 µg/mL (≈ 2.71 µM)
[1]; Enterococcus faecium (GC 4557)
  MIC Enterococcus faecium (GC 4557): 2 µg/mL (≈ 1.35 µM)
[1]; [5]
  MIC Enterococcus faecalis (GC 2242): 4 µg/mL (≈ 2.71 µM)
  MIC Enterococcus faecalis (GC 2691): 2 µg/mL (≈ 1.35 µM)
  MIC Enterococcus faecalis (GC 3059): 2 µg/mL (≈ 1.35 µM)
[2]; Escherichia coli (ATCC 25922)
  MIC Escherichia coli (ATCC 25922): >64 µg/mL
[2]; Escherichia coli (GC 4559)
  MIC Escherichia coli (GC 4559): >64 µg/mL
[2]; Escherichia coli (GC 4560)
  MIC Escherichia coli (GC 4560): 1 µg/mL (≈ 0.677 µM)
[3]; Coagulase Negative Staphylococcus (GC 4547)
  MIC Coagulase Negative Staphylococcus (GC 4547): 2 µg/mL (≈ 1.35 µM)
[3]; Coagulase Negative Staphylococcus (GC 4548)
  MIC Coagulase Negative Staphylococcus (GC 4548): 0.5 µg/mL (≈ 0.338 µM)
[3]; Coagulase Negative Staphylococcus (GC 4549)
  MIC Coagulase Negative Staphylococcus (GC 4549): 0.5 µg/mL (≈ 0.338 µM)
[3]; Coagulase Negative Staphylococcus (GC 4551)
  MIC Coagulase Negative Staphylococcus (GC 4551): 2 µg/mL (≈ 1.35 µM)
[3]; Coagulase Negative Staphylococcus (GC 6257)
  MIC Coagulase Negative Staphylococcus (GC 6257): 1 µg/mL (≈ 0.677 µM)
[3]; Staphylococcus aureus (ATCC 29213)
  MIC Staphylococcus aureus (ATCC 29213): 2 µg/mL (≈ 1.35 µM)
[3]; Staphylococcus aureus (GC 1131)
  MIC Staphylococcus aureus (GC 1131): 2 µg/mL (≈ 1.35 µM)
[3]; Staphylococcus aureus (GC 3051)
  MIC Staphylococcus aureus (GC 3051): 2 µg/mL (≈ 1.35 µM)
[3]; Staphylococcus aureus (GC 3053)
  MIC Staphylococcus aureus (GC 3053): 2 µg/mL (≈ 1.35 µM)
[3]; Staphylococcus aureus (GC 4541)
  MIC Staphylococcus aureus (GC 4541): 2 µg/mL (≈ 1.35 µM)
[3]; Staphylococcus aureus (GC 4542)
  MIC Staphylococcus aureus (GC 4542): 4 µg/mL (≈ 2.71 µM)
[3]; Staphylococcus aureus (GC 4544)
  MIC Staphylococcus aureus (GC 4544): 2 µg/mL (≈ 1.35 µM)
[3]; Staphylococcus aureus (GC 4545)
  MIC Staphylococcus aureus (GC 4545): 2 µg/mL (≈ 1.35 µM)
[3]; Staphylococcus aureus-SMITH (GC 4543)
  MIC Staphylococcus aureus-SMITH (GC 4543): 2 µg/mL (≈ 1.35 µM)
[3]; Staphylococcus haemolyticus (GC 4546)
  MIC Staphylococcus haemolyticus (GC 4546): 2 µg/mL (≈ 1.35 µM)
[4]; Streptococcus agalactiae (GC 4564)
  MIC Streptococcus agalactiae (GC 4564): 0.12 µg/mL (≈ 0.0812 µM)
[4]; Streptococcus pneumoniae (ATCC 6301)
  MIC Streptococcus pneumoniae (ATCC 6301): <0.06 µg/mL
[4]; Streptococcus pneumoniae (GC 1894)
  MIC Streptococcus pneumoniae (GC 1894): <0.06 µg/mL
[4]; Streptococcus pneumoniae (GC 4565)
  MIC Streptococcus pneumoniae (GC 4565): <0.06 µg/mL
[4]; Streptococcus pyogenes (GC 4563)
  MIC Streptococcus pyogenes (GC 4563): <0.06 µg/mL
[4]; [5]
  MIC Streptococcus agalactiae (GC 4564): 0.12 µg/mL (≈ 0.0812 µM)
  MIC Streptococcus pneumoniae (ATCC 6301): <0.06 µg/mL
  MIC Streptococcus pneumoniae (GC 1894): <0.06 µg/mL
  MIC Streptococcus pneumoniae (GC 4565): <0.06 µg/mL
  MIC Streptococcus pyogenes (GC 4563): <0.06 µg/mL
